Here are results for 20 compounds from ChEMBL document CHEMBL1125663, “Function of negative charge in the "address domain" of deltorphins” (J Med Chem, 1991).

Square brackets hold non-standard residues; d marks the D form. Peptide text beside a SMILES is read from it.

Type in all cases: cell membranes
For assay [1], the target named is T1, Delta-type opioid receptor (Rattus norvegicus, UniProt P33533). The experiment in a line: Binding affinity against Opioid receptor delta 1 in P2 membrane preparation of rat brain by [3H]DADLE displacement.
T1 sequence (P33533 whole entry): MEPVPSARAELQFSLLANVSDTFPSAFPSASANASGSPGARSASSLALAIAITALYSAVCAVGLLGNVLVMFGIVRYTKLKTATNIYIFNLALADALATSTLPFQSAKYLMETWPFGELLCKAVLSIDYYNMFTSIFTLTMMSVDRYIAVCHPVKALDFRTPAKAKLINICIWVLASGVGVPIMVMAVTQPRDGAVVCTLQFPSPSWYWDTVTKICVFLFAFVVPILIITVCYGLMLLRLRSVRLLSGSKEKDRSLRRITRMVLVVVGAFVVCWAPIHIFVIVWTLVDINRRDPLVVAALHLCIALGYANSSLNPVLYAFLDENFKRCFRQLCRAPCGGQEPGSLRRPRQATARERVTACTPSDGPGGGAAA
The target of assay [2] is T2, Mu-type opioid receptor (Rattus norvegicus, UniProt P33535). The experiment in a line: Binding affinity against Opioid receptor mu 1 in P2 membrane preparation of rat brain by [3H]DAGO displacement.
T2 sequence (P33535 whole entry): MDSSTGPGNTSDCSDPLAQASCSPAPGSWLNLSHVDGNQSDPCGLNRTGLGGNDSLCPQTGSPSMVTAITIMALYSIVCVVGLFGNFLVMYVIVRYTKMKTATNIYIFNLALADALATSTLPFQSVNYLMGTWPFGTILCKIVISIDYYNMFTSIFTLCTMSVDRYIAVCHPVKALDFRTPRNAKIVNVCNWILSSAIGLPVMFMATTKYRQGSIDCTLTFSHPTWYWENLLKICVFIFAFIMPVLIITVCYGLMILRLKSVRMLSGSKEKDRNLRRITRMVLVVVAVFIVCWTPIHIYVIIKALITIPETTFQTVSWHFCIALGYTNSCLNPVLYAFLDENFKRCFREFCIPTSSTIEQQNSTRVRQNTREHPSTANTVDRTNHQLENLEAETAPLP
Assay [3] deals with T2, Mu-type opioid receptor. The experiment in a line: Inhibition of [3H]DAGO binding to trat brain opioid receptor mu in P2 membrane.
The target of assay [4] is T1, Delta-type opioid receptor. The experiment in a line: Inhibition of [3H]-DADLE binding to opioid receptor delta in P2 membrane preparation of rat brain.

With `CSCC[C@H](NC(=O)[C@H](CC(C)C)NC(=O)[C@H](Cc1cnc[nH]1)NC(=O)[C@H](Cc1ccccc1)NC(=O)[C@@H](CCSC)NC(=O)[C@@H](N)Cc1ccc(O)cc1)C(=O)N[C@@H](CC(=O)O)C(C)=O`, the Ki stood at 155 nM in assay [1] and 3220 nM on Mu-type opioid receptor [2].
The matching figures for `CC(C)[C@H](NC(=O)[C@H](CC(=O)O)NC(=O)[C@H](Cc1ccccc1)NC(=O)[C@H](C)NC(=O)[C@@H](N)Cc1ccc(O)cc1)C(=O)N[C@H](C(=O)NCC(=O)O)C(C)C`: 6.01 nM and 1640 nM.
On the same counts, the results for `CCCC[C@H](NC(=O)[C@H](CC(C)C)NC(=O)[C@H](Cc1cnc[nH]1)NC(=O)[C@H](Cc1ccccc1)NC(=O)[C@@H](CCSC)NC(=O)[C@@H](N)Cc1ccc(O)cc1)C(=O)N[C@@H](CC(=O)O)C(N)=O` are 0.22 nM and 206 nM.
The matching figures for `CSCC[C@H](NC(=O)[C@H](CC(C)C)NC(=O)[C@H](CC(=O)O)NC(=O)[C@H](Cc1ccccc1)NC(=O)[C@@H](CCSC)NC(=O)[C@@H](N)Cc1ccc(O)cc1)C(=O)N[C@@H](CC(=O)O)C(N)=O`: 7.71 nM and 10600 nM.
Regarding `CSCC[C@H](NC(=O)[C@H](CC(C)C)NC(=O)[C@H](Cc1c[nH]cn1)NC(=O)[C@H](Cc1ccccc1)NC(=O)[C@@H](CCSC)NC(=O)[C@@H](N)Cc1ccc(O)cc1)C(=O)N[C@@H](CC(N)=O)C(N)=O`, the figures for the Ki (in assay [1]; on Mu-type opioid receptor [2]) were 0.22 nM and 119 nM, respectively.
On the same counts, the results for `CSCC[C@H](NC(=O)[C@H](CC(=O)O)NC(=O)[C@H](CC(=O)O)NC(=O)[C@H](Cc1ccccc1)NC(=O)[C@@H](CCSC)NC(=O)[C@@H](N)Cc1ccc(O)cc1)C(=O)N[C@@H](Cc1c[nH]cn1)C(N)=O` are 1900 nM and 1570 nM.
On the same counts, the results for `CC(C)[C@H](NC(=O)[C@H](CCC(N)=O)NC(=O)[C@H](Cc1ccccc1)NC(=O)[C@@H](C)NC(=O)[C@@H](N)Cc1ccc(O)cc1)C(=O)N[C@H](C(=O)NCC(=O)O)C(C)C` are 0.2 nM and 153 nM.
For `CSCC[C@@H](NC(=O)[C@@H](N)Cc1ccc(O)cc1)C(=O)N[C@@H](Cc1ccccc1)C(=O)N[C@@H](Cc1cnc[nH]1)C(=O)N[C@@H](CC(C)C)C(=O)N[C@@H](CC(=O)O)C(=O)N[C@@H](CC(=O)O)C(N)=O`, the Ki was 3.08 nM in assay [1] and 3410 nM at Mu-type opioid receptor [2].
The matching figures for `CSCC[C@@H](NC(=O)[C@@H](N)Cc1ccc(O)cc1)C(=O)N[C@@H](Cc1ccccc1)C(=O)N[C@@H](Cc1cnc[nH]1)C(=O)N[C@@H](CC(C)C)C(=O)N[C@@H](CC(=O)O)C(=O)N[C@@H](CC(=O)O)C(=O)O`: 6.01 nM and 2090 nM.
As for `CC(C)[C@H](NC(=O)CNC(=O)[C@H](Cc1ccccc1)NC(=O)[C@H](C)NC(=O)[C@@H](N)Cc1ccc(O)cc1)C(=O)N[C@H](C(=O)N[C@@H](CC(=O)O)C(=O)O)C(C)C` (H-YAFGVVD-OH), the Ki in assay [1] was found to be 8.79 nM; on Mu-type opioid receptor [2] it was 57.5 nM.
With `CC(C)[C@H](NC(=O)[C@H](CC(N)=O)NC(=O)[C@H](Cc1ccccc1)NC(=O)[C@H](C)NC(=O)[C@@H](N)Cc1ccc(O)cc1)C(=O)N[C@H](C(=O)NCC(N)=O)C(C)C` (H-YAFNVVG-NH2), the Ki at Mu-type opioid receptor [3] came to 176 nM; in assay [4] it was 0.65 nM.
On to `CC(C)[C@H](NC(=O)[C@H](CC(=O)O)NC(=O)[C@@H](NC(=O)[C@H](Cc1ccccc1)NC(=O)[C@H](C)NC(=O)[C@@H](N)Cc1ccc(O)cc1)C(C)C)C(=O)NCC(N)=O` (H-YAFVDVG-NH2), for which the Ki in assay [1] was 1.23 nM; on Mu-type opioid receptor [2], 275 nM.
On the same counts, the results for `CC(C)[C@H](NC(=O)[C@H](Cc1ccccc1)NC(=O)[C@H](C)NC(=O)[C@@H](N)Cc1ccc(O)cc1)C(=O)N[C@H](C(=O)N[C@@H](CC(=O)O)C(=O)NCC(N)=O)C(C)C` (H-YAFVVDG-NH2) are 9.42 nM and 149 nM.
For the compound `CSCC[C@H](NC(=O)[C@H](CC(C)C)NC(=O)[C@H](Cc1c[nH]cn1)NC(=O)[C@H](Cc1ccccc1)NC(=O)[C@@H](CCSC)NC(=O)[C@@H](N)Cc1ccc(O)cc1)C(=O)N[C@@H](CC(=O)O)C(=O)O` (H-Y[dM]FHLMD-OH), the Ki is 10.8 nM in assay [1] and 2690 nM on Mu-type opioid receptor [2].
For the compound `C[C@@H](NC(=O)[C@@H](N)Cc1ccc(O)cc1)C(=O)NCC(=O)N(C)[C@@H](Cc1ccccc1)C(=O)NCCO` [DAMGO], the Ki in assay [1] amounted to 180 nM.
Take `CSCC[C@H](NC(=O)[C@H](CC(C)C)NC(=O)[C@H](Cc1cnc[nH]1)NC(=O)[C@H](Cc1ccccc1)NC(=O)[C@@H](CCSC)NC(=O)[C@@H](N)Cc1ccc(O)cc1)C(=O)N[C@@H](CC(=O)O)C(N)=O` [DELTORPHIN A] (H-Y[dM]FHLMD-NH2): the Ki was 0.12 nM in assay [1] and 336 nM on Mu-type opioid receptor [2].
On to `CC(C)[C@H](NC(=O)[C@H](CC(=O)O)NC(=O)[C@H](Cc1ccccc1)NC(=O)[C@@H](C)NC(=O)[C@@H](N)Cc1ccc(O)cc1)C(=O)N[C@H](C(=O)NCC(N)=O)C(C)C` [DELTORPHIN C], for which the Ki was 387 nM at Mu-type opioid receptor [3] and 0.21 nM in assay [4].
In turn, `CC(C)[C@H](NC(=O)[C@H](CCC(=O)O)NC(=O)[C@H](Cc1ccccc1)NC(=O)[C@H](C)NC(=O)[C@@H](N)Cc1ccc(O)cc1)C(=O)N[C@H](C(=O)NCC(=O)O)C(C)C` [DELTORPHINE II] registered a Ki in assay [4] of 0.31 nM.
Regarding `CC(C)[C@H](NC(=O)[C@H](CCC(=O)O)NC(=O)[C@H](Cc1ccccc1)NC(=O)[C@@H](C)NC(=O)[C@@H](N)Cc1ccc(O)cc1)C(=O)N[C@H](C(=O)NCC(=O)O)C(C)C` [DELTORPHIN], the Ki in assay [4] came to 7.97 nM.
On Mu-type opioid receptor [2], `C[C@@H](NC(=O)[C@@H](N)Cc1ccc(O)cc1)C(=O)N[C@@H](Cc1ccccc1)C(=O)NCC(=O)N[C@@H](Cc1ccc(O)cc1)C(=O)N1CCC[C@H]1C(=O)N[C@@H](CO)C(N)=O` [DERMORPHIN] had a Ki of 0.7 nM.

In general, Ki refers to a measure of affinity in units of concentration, obtained from inhibition or displacement. Lower therefore signals higher affinity.
